Laboratory results reported in patent publication US20060222617A1, “Water-soluble cosmetic composition and method for manufacturing the same” (Taiyen Biotech. Co. Ltd., priority 2005, published 2006).
Like-named read-outs stand apart in the source and are kept apart here.

Protocol: A lyophilizated product solubility test and a stability test are conducted to compare the cosmetic composition of the present invention with the start materials of the cosmetic composition.

Solubility (after processing the cosmetic composition (lyophilized with water-soluble collagen, rehydrated with the amount of water removed)): 2 wt %
Solubility (start materials of the cosmetic composition (without processing)): 0.5 wt %
Compound: O=C1O[C@H]([C@@H](O)CO)C([O-])=C1OP(=O)([O-])[O-].O=C1O[C@H]([C@@H](O)CO)C([O-])=C1OP(=O)([O-])[O-].[Mg+2].[Mg+2].[Mg+2] [Magnesium ascorbyl phosphate, magnesium ascorbyl phosphate]
